Measured values: article PMC4303209, “A novel phosphatidylinositol 3-kinase (PI3K) inhibitor directs a potent FOXO-dependent, p53-independent cell cycle arrest phenotype characterized by the differential induction of a subset of FOXO-regulated genes” (Breast Cancer Research : BCR, 2014)

Tested on: MCF-7 breast cancer cells
Experiment: Microarray gene expression analysis (Agilent whole human genome 4 x 44K; compound vs DMSO, LIMMA log2 fold change)
Format: cell-based

For `Cn1ncc2c(N3CCOCC3)nc(-c3cccc(O)c3)nc21` [ETP-45658], the “log2FC LATS1” value (gene LATS1 (Gene 9113), cell cycle genes) was 0.043, the log2FC (gene LATS2 (Gene 26524), cell cycle genes) was 0.213 and the “LCMT1 log2FC” value (gene LCMT1 (51451), apoptosis genes) was -0.115. The “LCN2 log2FC” value (gene LCN2 (3934), apoptosis genes) was 0.046, the log2FC (gene LEMD3 (Gene 23592), cell cycle genes) was 0.294 and the “LGALS1 log2FC” value (gene LGALS1 (3956), apoptosis genes) was 0.017. The “LGALS12 log2FC” value (gene LGALS12 (85329), apoptosis genes) was 0.013, the “LGALS14 log2FC” value (gene LGALS14 (56891), apoptosis genes) was -0.009 and the log2FC (gene LMNA (Gene 4000), cell cycle genes) was -0.311. The “LRP1 log2FC” value (gene LRP1 (4035), apoptosis genes) was 0.0019, the log2FC (gene LRP6 (Gene 4040), cell cycle genes) was -0.141 and the log2FC (gene LSM11 (Gene 134353), cell cycle genes) was 0.145. For the same compound, the “LTA log2FC” value (gene LTA (4049), apoptosis genes) was -0.039, the “LTF log2FC” value (gene LTF (4057), apoptosis genes) was 0.011 and the “MAD2L1 log2FC” value (gene MAD2L1 (4085), apoptosis genes) was 0.081. The “MAEL log2FC” value (gene MAEL (84944), apoptosis genes) was -0.018, the “log2FC MAEL” value (gene MAEL (Gene 84944), cell cycle genes) was -0.018 and the “MAGED1 log2FC” value (gene MAGED1 (9500), apoptosis genes) was -0.026. For the same compound, the “MAGEH1 log2FC” value (gene MAGEH1 (28986), apoptosis genes) was -0.040, the “MAP2K5 log2FC” value (gene MAP2K5 (5607), apoptosis genes) was -0.077 and the “MAP2K7 log2FC” value (gene MAP2K7 (5609), apoptosis genes) was 0.020. The log2FC (gene MAP3K8 (Gene 1326), cell cycle genes) was 0.390, the log2FC (gene MAP4 (Gene 4134), cell cycle genes) was -0.267 and the “MAPK1 log2FC” value (gene MAPK1 (5594), apoptosis genes) was -0.045. For the same compound, the log2FC (gene MAPK4 (Gene 5596), cell cycle genes) was -0.157, the log2FC (gene MAPK6 (Gene 5597), cell cycle genes) was 0.270 and the “MAPK8 log2FC” value (gene MAPK8 (5599), apoptosis genes) was 0.027. For the same compound, the “MAPK9 log2FC” value (gene MAPK9 (5601), apoptosis genes) was 0.064, the log2FC (gene MAPK12 (Gene 6300), cell cycle genes) was -0.374 and the “MAPT log2FC” value (gene MAPT (4137), apoptosis genes) was -0.024. The “log2FC MCM4” value (gene MCM4 (Gene 4173), cell cycle genes) was 0.015, the “MDM4 log2FC” value (gene MDM4 (4194), apoptosis genes) was 0.064 and the log2FC (gene MED25 (Gene 81857), cell cycle genes) was -0.377. The “MKL1 log2FC” value (gene MKL1 (57591), apoptosis genes) was 0.068, the “MKNK1 log2FC” value (gene MKNK1 (8569), apoptosis genes) was -0.00243 and the “MNDA log2FC” value (gene MNDA (4332), apoptosis genes) was -0.056. For the same compound, the “MSX2 log2FC” value (gene MSX2 (4488), apoptosis genes) was 0.054, the “MT3 log2FC” value (gene MT3 (4504), apoptosis genes) was -0.266 and the log2FC (gene MYOG (Gene 4656), cell cycle genes) was -0.210. For the same compound, the “NACA log2FC” value (gene NACA (4666), apoptosis genes) was 0.023, the “log2FC NANOG” value (gene NANOG (Gene 79923), cell cycle genes) was -0.00653 and the log2FC (gene NASP (Gene 4678), cell cycle genes) was 0.392. For the same compound, the “NCF1 log2FC” value (gene NCF1 (653361), apoptosis genes) was -0.052, the “NCF2 log2FC” value (gene NCF2 (4688), apoptosis genes) was -0.027 and the log2FC (gene NCOR1 (Gene 9611), cell cycle genes) was 0.294. The “NDUFS3 log2FC” value (gene NDUFS3 (4722), apoptosis genes) was -0.101, the “NEURL log2FC” value (gene NEURL (9148), apoptosis genes) was -0.034 and the “NEUROD1 log2FC” value (gene NEUROD1 (4760), apoptosis genes) was -0.043. The “log2FC NEUROG1” value (gene NEUROG1 (Gene 4762), cell cycle genes) was 0.161, the “NLE1 log2FC” value (gene NLE1 (54475), apoptosis genes) was 0.057 and the “NME6 log2FC” value (gene NME6 (10201), apoptosis genes) was -0.008. The “log2FC NME6” value (gene NME6 (Gene 10201), cell cycle genes) was -0.008, the “NOS1AP log2FC” value (gene NOS1AP (9722), apoptosis genes) was 0.022 and the “NOTCH1 log2FC” value (gene NOTCH1 (4851), apoptosis genes) was -0.090. For the same compound, the “NOX5 log2FC” value (gene NOX5 (79400), apoptosis genes) was -0.012, the “log2FC NOX5” value (gene NOX5 (Gene 79400), cell cycle genes) was -0.012 and the “NTRK1 log2FC” value (gene NTRK1 (4914), apoptosis genes) was -0.014. The log2FC (gene NUMA1 (Gene 4926), cell cycle genes) was -0.415, the log2FC (gene NUP153 (Gene 9972), cell cycle genes) was -0.238 and the “log2FC NUP155” value (gene NUP155 (Gene 9631), cell cycle genes) was -0.034. For the same compound, the log2FC (gene NUP188 (Gene 23511), cell cycle genes) was -0.304, the “NUPR1 log2FC” value (gene NUPR1 (26471), apoptosis genes) was 0.023 and the “OSR1 log2FC” value (gene OSR1 (130497), apoptosis genes) was -0.039. The “P4HB log2FC” value (gene P4HB (5034), apoptosis genes) was 0.022, the log2FC (gene PA2G4 (Gene 5036), cell cycle genes) was -0.298 and the “PAFAH2 log2FC” value (gene PAFAH2 (5051), apoptosis genes) was 0.046. For the same compound, the “PAK6 log2FC” value (gene PAK6 (56924), apoptosis genes) was -0.022, the “log2FC PAK6” value (gene PAK6 (Gene 56924), cell cycle genes) was -0.022 and the log2FC (gene PAPD5 (Gene 64282), cell cycle genes) was 0.341. The “PARK7 log2FC” value (gene PARK7 (11315), apoptosis genes) was 0.028, the “PAX2 log2FC” value (gene PAX2 (5076), apoptosis genes) was 0.003 and the “log2FC PCNA” value (gene PCNA (Gene 5111), cell cycle genes) was -0.00322. For the same compound, the “PCSK9 log2FC” value (gene PCSK9 (255738), apoptosis genes) was -0.039, the “log2FC PDCD2L” value (gene PDCD2L (Gene 84306), cell cycle genes) was 0.012 and the “PDCD5 log2FC” value (gene PDCD5 (9141), apoptosis genes) was 0.123. The “PDCL3 log2FC” value (gene PDCL3 (79031), apoptosis genes) was -0.100, the “PDE1B log2FC” value (gene PDE1B (5153), apoptosis genes) was 0.004 and the “PDE3A log2FC” value (gene PDE3A (5139), apoptosis genes) was -0.006. For the same compound, the “log2FC PDE3A” value (gene PDE3A (Gene 5139), cell cycle genes) was -0.006.
